Results taken from paper PMC9100884, “Semi-Synthesis of N-Aryl Amide Analogs of Piperine from Piper nigrum and Evaluation of Their Antitrypanosomal, Antimalarial, and Anti-SARS-CoV-2 Main Protease Activities” (Molecules, 2022).
Read-outs that look alike come from different tables or passages of the source.

Assays:
[1] = system: Vero cells; test: Cytotoxicity against Vero cells (sulforhodamine B assay); format: cell-based, African green monkey; conditions: for EC50: Chlorocebus sabaeus, 72 h, read-out: EC50 ± S.E.M. Vero; for cytotoxicity against Vero cells (in words): at the concentration of 100 μM
Protocol: Cytotoxicity test of selected analogues was performed against the African green monkey kidney fibroblast (Vero cells) obtained from Bioassay laboratory, BIOTEC, NSTDA, Thailand. The cells of less than 20 passages were maintained continuously in a MEM/EBSS medium supplemented with 10% heated fetal bovine serum (GE Healthcare, PAA Laboratories GmbH, Pasching, Aurstria), 2.2 g/L sodium bicarbonate (Emsure, ACS, Reag. Ph Eur, Darmstadt, Germany), and 1% sodium pyruvate (Sigma). Cytotoxicity was determined by sulforhodamine B assay. Briefly, 1.9 × 10^4 Vero cells were incubated with each compound at final concentrations of 0.0001–100 µM at 37 °C under 5% CO2. After incubation for 72 h, the cells were fixed with 10% trichloroacetic acid (Sigma) at 4 °C for 45 min, washed gently with tap-water and air-dried at room temperature for overnight. Then, the fixed protein was stained with 0.057% w/v of sulforhodamine B (Sigma). The excess dye was washed repeatedly with 1% v/v of acetic acid. The plates were allowed to air-dry at room temperature for overnight. Finally, the protein-bound dye in each well was dissolved with 50 µL of 10× Tris-based solution. The optical density (OD) was measured by a microplate reader at wavelength 510 nm. The EC50 value of each compound was determined from the dose-response curve. Data were shown as mean and standard error of the mean (S.E.M.) of three biological independent experiments.

[2] = system: Vero E6 cell lines; test: Cytotoxicity against Vero E6 cells (CellTiter 96 AQueous One); format: cell-based; conditions: for EC50: Chlorocebus sabaeus, read-out: EC50 ± S.E.M. Vero E6
Protocol: The cytotoxicity of the active compound was tested with Vero E6 cell lines. Each cell line was seeded at 1 × 10^4 cells per well into 96-well plates in growth medium and incubated overnight. The compounds were prepared at the concentrations of 2–500 µM in DMSO and added to the cells at the DMSO final concentrations of 0.1%. Cells were incubated for 48 h before analyzing the cell viability using CellTiter 96® AQueous One Solution Cell Proliferation Assay kit (Promega, Madison, WI, USA) according to the manufacturer’s protocol. The plate was read at the A450 by VICTORTM X3 microplate reader (PerkinElmer, Waltham, MA, USA). The EC50 values of the cells were calculated from nonlinear regression analysis. The results were reported as means and standard error of mean (S.E.M.) from three biological independent experiments.

[3] = system: T. brucei rhodesiense (STB900); test: In vitro antitrypanosomal assay (resazurin); format: cell-based, Trypanosoma brucei rhodesiense; conditions: for IC50: Trypanosoma brucei, RHODESIENSE, read-out: IC50 ± S.E.M. Antitrypanosomal against T. brucei rhodesiense
Protocol: T. brucei rhodesiense (STB900) was maintained continuously in MEM/EBSS medium (pH 7.3) supplemented with 3 g/L sodium bicarbonate, 4.5 g/L glucose, 25 mM HEPES, 0.05 mM bathocuproinedisulfonic disodium salt, 1.5 mM L-cysteine, 1 mM hypoxanthine, 0.16 mM thymidine, 1 mM sodium pyruvate, 0.2 mM 2-mercaptoethanol, 1% MEM non-essential amino acid, and 15% v/v heated ([…]) FBS in a 5% CO2 incubator [47]. To evaluate the antitrypanosomal activity, trypanosome cells were seeded at 2 × 10^4 cells/well in 175 µL culture media/well and incubated with 25 µL of varying concentrations of each test compound in a 96-well plate under the culture conditions. […] Following 72 h incubation, 20 μL of resazurin was added to each well. The reaction was further incubated at 37 °C under 5% CO2 for 3 h to allow for the irreversible reduction of resazurin (violet color) to resorufin (pink color) by viable trypanosome cells. Fluorescence signals were measured by a spectrofluorometer using a 530-nm excitation wavelength and a 585-nm emission wavelength. […] The result for each compound was normalized using the control media for the overall background subtraction (0%), and untreated T. brucei rhodesiense with 0.1% DMSO was used as the 100% control.

[4] = system: 3D7 P. falciparum; test: In vitro antimalarial assay (SYBR Green I); format: cell-based; conditions: Plasmodium falciparum, read-out: IC50 ± S.E.M. Antimalarial against 3D7 P. falciparum
[5] = cytotoxicity, Vero cells, sulforhodamine B, 0.0001–100 µM
[6] = Vero C1008, cytotoxicity, Vero E6 cells, 48 h, 2–500 µM

Structure (SMILES) | EC50 [1, 5] [µM] | EC50 [2, 6] [µM] | IC50 ([3]; 72 h incubation, resazurin) [µM] | IC50 ([4]; 3D7 strain, 48 h, SYBR Green I) [µM] | cytotoxicity against Vero cells (in words) [1] | EC50 ([1]; Vero) [µM] | EC50 ([2]; Vero C1008, 48 h) [µM] | cytotoxicity against Vero E6 cell lines (in words) ([2]; at the concentration of 500 μM) | IC50 ([3]; 72 h) [µM] | activity against T. brucei rhodesiense (in words) ([3]; at 100 μM) | IC50 ([4]; 3D7, 48 h) [µM]
O=C(/C=C/C=C/c1ccc2c(c1)OCO2)Nc1ccccc1 [Compound 3, (2E,4E)-5-(benzo[d][1,3]dioxol-5-yl)-N-phenylpenta-2,4-dienamide] | > 100 | > 500 | 53.5 ± 1.77 | 25.8 ± 1.56 |  |  |  |  |  |  | 
COc1ccc(NC(=O)/C=C/C=C/c2ccc3c(c2)OCO3)c(OC)c1 [Compound 4, (2E,4E)-5-(benzo[d][1,3]dioxol-5-yl)-N-(2,4-dimethoxyphenyl)penta-2,4-dienamide] | > 100 | > 500 | 19.9 ± 2.28 | 29.4 ± 3.54 |  |  |  |  |  |  | 
COc1ccc(OC)c(NC(=O)/C=C/C=C/c2ccc3c(c2)OCO3)c1 [Compound 5, (2E,4E)-5-(benzo[d][1,3]dioxol-5-yl)-N-(2,5-dimethoxyphenyl)penta-2,4-dienamide] | > 100 | > 500 | 15.5 ± 3.09 | 24.6 ± 1.91 | no cytotoxicity |  |  |  |  |  | 
N=C(N)c1ccc(OCCCCCOc2ccc(C(=N)N)cc2)cc1 [Pentamidine, reference compound] |  |  | 0.016 ± 0.002 |  |  |  |  |  |  |  | 
O=C(O)/C=C/C=C/c1ccc2c(c1)OCO2 [Piperic acid (2), Piperic acid] |  |  |  |  | non-toxic | > 100 | > 500 | non-toxic | > 100 | inactive | 63.5 ± 2.43
O=C(/C=C/C=C/c1ccc2c(c1)OCO2)N1CCCCC1 [Piperine (1), Piperine] | > 100 | 132 ± 2.91 | 56.7 ± 0.98 | 61.2 ± 2.83 | non-toxic |  |  |  |  |  | 
